Measured values taken from PubChem BioAssay (NCI).
Several values for one entry are separate records, joined by “and”; a condition that tells them apart may be missing. Identical values can stand only once.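 Step 1: Grow cells in 96-well plates. Step 2: Expose to compound for 48 hours at 5 concentrations. Step 3: Interpolate endpoints linearly; if unreached, use highest concentration. GI50: concentration for 50% inhibition of growth. TGI is the concentration that stops growth completely.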

Assays:
Test in all cases: DTP human tumour cell line panel, 48 h
T-47D breast = system: T-47D breast
UO-31 renal = system: UO-31 renal
SF-295 CNS = system: SF-295 CNS
HS 578T breast = system: HS 578T breast
HT29 colon = system: HT29 colon
HCC-2998 colon = system: HCC-2998 colon
UACC-62 melanoma = system: UACC-62 melanoma
COLO 205 colon = system: COLO 205 colon
NCI-H23 lung = system: NCI-H23 lung
786-0 renal = system: 786-0 renal

Compound | GI50 (T-47D breast) [µM] | TGI (T-47D breast) [µM] | GI50 (UO-31 renal) [µM] | TGI (UO-31 renal) | GI50 (SF-295 CNS) [µM] | TGI (SF-295 CNS) [µM] | GI50 (HS 578T breast) [µM] | TGI (HS 578T breast) [µM] | GI50 (HT29 colon) [µM] | TGI (HT29 colon) [µM] | GI50 (HCC-2998 colon) [µM] | TGI (HCC-2998 colon) [µM] | GI50 (UACC-62 melanoma) [µM] | TGI (UACC-62 melanoma) | GI50 (COLO 205 colon) [µM] | TGI (COLO 205 colon) [µM] | GI50 (NCI-H23 lung) [µM] | TGI (NCI-H23 lung) [µM] | GI50 (786-0 renal) | TGI (786-0 renal) [µM]
O=C(Nc1ccc(Oc2ccc3nc(NC(=O)c4ccccc4)[nH]c3c2)cc1)Nc1cc(C(F)(F)F)ccc1F | 0.783 | 3.17 | 1.31 | 15.6 µM | 0.71 | 4.49 | 1.07 | 11.6 | 1.38 | > 25 | 2.38 | > 21.5 | 0.818 | 4.01 µM | 1.12 | 6.7 | 0.93 | 13 | 7.32 µM | > 25
Cc1cnc(/C=N\NC(N)=S)c2cccc(N)c12 | 2.49 | > 100 | 1.88 | 10.3 µM and 4.4 µM | 2.36 | > 100 | > 58 | > 100 | 5.11 | > 100 |  | > 100 | 1.13 | 9.26 µM and 6.67 µM | 3.23 | > 100 | 2.14 | > 100 | 0.867 µM and 0.501 µM | 
C=CC(C)(O)/C=C/C=C(\C)C(CC1OC1(C)C)OC(=O)/C(C)=C\C (stereo not drawn) |  | > 100 |  | > 100 µM |  | > 100 |  | > 100 |  | > 100 |  | > 100 |  | > 100 µM |  | > 100 |  | > 100 |  | > 100
CCN1C(=O)NC(=O)C(C)(N2C(=O)c3c(F)c(F)c(F)c(F)c3C2=O)C1=O (stereo not drawn) | 3.42 | 11.9 | 2.39 | 6.98 µM | 9.67 | 23.9 | 3.95 | 25.1 | 2.4 | 8.58 | 2.52 | 7.77 | 2.75 | 9.57 µM | 2.13 | 4.47 | 3.92 | 17.7 | 4.49 µM | 17.7
COc1ccc(C2=NN(C(=O)c3cc(OC)c(OC)c(OC)c3)C(c3ccc(Cl)cc3)C2)cc1OC (stereo not drawn) | 3.59 | > 100 | 1.11 | 41.8 µM | 0.565 | > 100 | 3.59 | > 42.4 | 1.4 | > 100 | 7.61 | > 100 | 0.549 | 15.5 µM | 2.44 | > 100 | 5.78 | > 90.1 | 2.14 µM | 27.5
C=CC(C=O)C1(O)CCOC(=O)/C1=C\N (stereo not drawn) | > 100 | > 100 | > 100 | > 100 µM | > 100 | > 100 | 7.57 | > 100 | > 100 | > 100 | > 100 | > 100 | > 100 | > 100 µM | > 100 | > 100 | 52.4 | > 100 | > 100 µM | > 100
CC(C)(C#N)c1cc(F)cc(C(=O)Nc2cc(Nc3ncccc3-c3ncnc4nc[nH]c34)ccc2F)c1 | 2.9 | > 10 | 0.287 | 3.64 µM | 3.74 | > 10 | 1.41 | > 10 | 0.151 | > 10 | 1.12 | > 10 | 0.0841 | > 10 µM | 0.109 | > 10 | 0.501 | > 10 | > 10 µM | > 10
c1ccc(-c2cc(C3CO3)c3ccccc3n2)cc1 (stereo not drawn) |  | 65.8 |  | 3.51 µM |  | > 100 |  | 83.9 |  | 35.8 |  | 35.2 |  | 33.7 µM |  | 37.4 |  | 37.5 |  | 29.3
CCOC(=O)c1c2c(n(Cc3ccccc3)c1C)-c1ccccc1C(=O)C2=O | 13.2 | 31.8 | 16.3 | 31.6 µM | 19.6 | 48.4 | 2.93 | 12.4 | 11.8 | 25.7 | 6.35 | 19.6 | 17.8 | 34.2 µM | 15.6 | 30.6 | 12.1 | 27 | 6.35 µM | 19.3
O=C(Nc1ccc(Cl)cc1F)c1cc(I)ccc1O | 1.44 | 6.3 | 0.385 | 3.18 µM | 1.89 | 3.75 | 1.14 | 7.29 | 3.57 | > 100 | 3.1 | 11.9 | 0.448 | 2.19 µM | 4.52 | 17.5 | 1.78 | 6.59 | 2.98 µM | 9.24
CN1CCN(Cc2ccc(NC(=O)c3cncc(C#Cc4cncc5ncccc45)c3)cc2C(F)(F)F)CC1 | 10.9 | 27.3 | 1.25 | 6.35 µM | 3.72 | 15.8 | 1.36 | 7.93 | 1.04 | 11.9 | 2.46 | 17.6 | 1.67 | 9.52 µM | 1.11 | 13.2 | 1.54 | 12.2 | 9.81 µM | 22.2
O=C1c2ccccc2C(=Cc2ccccc2)c2ccccc21 | 2.68 | 9.65 | 2.1 | 10.2 µM | 2.59 | 13.6 | 3.9 | > 100 | 1.17 | 4.33 | 2.69 | 10.1 | 1.68 | 10.3 µM | 2.2 | 5.14 | 2.59 | 14.1 | 2.7 µM | 6.94
Cc1cccc(C(=O)/C=C/SC(=NC#N)SCc2ccccc2)c1 | 21.6 | > 100 | 30.9 | 89 µM | 21.2 | 88.6 | 27.9 | 94.8 | 56.5 | > 100 | 19.3 | 39.4 | 19.4 | 40.7 µM | 33.6 | > 100 | 20.9 | 47 | 19.1 µM | 40.5
